From patent publication US7662404B2, “Transdermal delivery system for dried particulate or lyophilized peptides and polypeptides” (TransPharma Medical Ltd., priority 2002, dated 2010)
Read-outs that look alike come from different tables or passages of the source.

Tests used:
[1] = system: plasma calcium ions and phosphorous; assay: Plasma calcium ions and phosphorus in women after hPTH (1-34) (Example 13); format: in vivo, human; details: four women, all transdermal and SC treatments
Description: Each female adult received five treatments of hPTH (1-34) with a minimum of 2 day clearance between treatments. The treatments were as follows: • 1. Three ViaDerm applications (final density of 300 micro-channels/cm^2) on one site of the upper arm. Two printed patches, each containing 100 μg hPTH (1-34), were placed over the application area (each for 6 hours). • 2. Two ViaDerm applications (final density of 150 micro-channels/cm^2) on one site of the upper arm. Two printed patches, each containing 200 μg hPTH (1-34), were placed over the application area. • 3. Three ViaDerm applications (final density of 300 micro-channels/cm^2) on one site of the upper arm. Two printed patches, each containing 200 μg hPTH (1-34), were placed over the application area. • 4. Subcutaneous (SC) injection of 20 μg hPTH (1-34) (FORTEO®, Teriparatide was purchased from Ely Lilly, Indianapolis, Ind., USA). • 5. SC injection of 60 μg hPTH (1-34) (FORTEO®).
Plasma hPTH (1-34), calcium ions and phosphate ions were determined by Eliza using commercial kits.

[2] = Plasma hPTH (1-34) from different printed patch formulations in pigs (Example 12); format: in vivo
Description: The experiment was performed as follows: Group 1: Each pig underwent two ViaDerm applications (150 micro-channels/cm^2) on one site on the back. A 100 μg hPTH (1-34) printed patch was placed over the application area and covered with Tegaderm. Total delivery area=1.4 cm (total 3 pigs). Formulation: hPTH (1-34) in water for injection (WFI), pH=6. Group 2: Each pig underwent two ViaDerm applications (150 micro-channels/cm^2) on one site on the back. A 100 μg hPTH (1-34) printed patch was placed over the application area and covered with Tegaderm. Total delivery area=1.4 cm^2 (total 3 pigs). Formulation: hPTH (1-34): Sucrose (1:5.5) in 0.72% acetic acid, pH=4. Group 3: Each pig underwent two ViaDerm applications (150 micro-channels/cm^2) on one site on the back. A 100 μg hPTH (1-34) printed patch was placed over the application area and covered with Tegaderm. Total delivery area=1.4 cm^2 (total 3 pigs). Formulation: hPTH (1-34): Trehalose (1:11) in 0.4% citric acid, pH=4. Group 4: Each pig was injected SC with 0.2 ml (20 μg) of hPTH (1-34) diluted to a 100 μg/ml solution with saline (total 3 pigs).

[3] = Plasma hPTH (1-34) in pigs as a function of patch application time (Example 14); format: in vivo; details: male, large white, pig; for Cmax: read-out: Cmax AVG ± SD; for F rel: topical or ocular, compared to SC, read-out: % BIO AVG ± SD
Description: A printed patch containing 90 μg of hPTH (1-34) was placed over the application area and covered with Tegaderm. The patch was removed 1 hour, 1.5 hours, 2 hours or 8 hours after application, and the skin site was gently wiped to remove residual peptide. As a control group, pigs were injected s.c. with 0.2 ml FORTEO® (hPTH (1-34) purchased from Ely Lilly, Indianapolis, Ind., USA; 250 μg/ml) diluted to 100 μg/ml in the dorsal neck area (final dose was 20 μg per animal). Formulation: hPTH (1-34) (10 mg/ml): Trehalose (110 mg/ml) in 50 mM acetic acid, pH=4.
To determine the amount of hPTH(1-34) delivered to the blood of the treated pigs, blood samples were withdrawn at the indicated time points and the amount of hPTH(1-34) was measured by an ELISA kit (Immutopics, San-Clemente, Calif.).

[4] = Plasma hPTH (1-34) after SC injection or printed patches (water) with ViaDerm in pigs (Example 11); format: in vivo; details: for bioavailability: read-out: % bioavailability cf. to S.C.
Description: Pigs (males, 10-12 kg, Large white) were treated as follows:
Group 1: 10 μg of hPTH (1-34) were injected subcutaneously (S.C.; total 3 pigs)
[…] Printed patches containing 50 μg hPTH (1-34) were placed over the treated area and covered with Tegaderm (3M Health Care, St. Paul, Minn.). Total delivery area=1.4 cm (total 3 pigs).
(§1) […] Printed patches containing 100 μg hPTH (1-34) were placed over the treated area and covered with Tegaderm. Total delivery area=1.4 cm (total 3 pigs).
as §1
hPTH (1-34) was dissolved in water and then printed on the patches. hPTH (1-34) concentrations in pig plasma were measured by an ELISA kit (Immutopics, San Clemente, Calif., USA).

CC[C@H](C)[C@H](NC(=O)[C@H](CCC(=O)O)NC(=O)[C@H](CO)NC(=O)[C@@H](NC(=O)[C@@H](N)CO)C(C)C)C(=O)N[C@@H](CCC(N)=O)C(=O)N[C@@H](CC(C)C)C(=O)N[C@@H](CCSC)C(=O)N[C@@H](Cc1cnc[nH]1)C(=O)N[C@@H](CC(N)=O)C(=O)N[C@@H](CC(C)C)C(=O)NCC(=O)N[C@@H](CCCCN)C(=O)N[C@@H](Cc1cnc[nH]1)C(=O)N[C@@H](CC(C)C)C(=O)N[C@@H](CC(N)=O)C(=O)N[C@@H](CO)C(=O)N[C@@H](CCSC)C(=O)N[C@@H](CCC(=O)O)C(=O)N[C@@H](CCCN=C(N)N)C(=O)N[C@H](C(=O)N[C@@H](CCC(=O)O)C(=O)N[C@@H](Cc1c[nH]c2ccccc12)C(=O)N[C@@H](CC(C)C)C(=O)N[C@@H](CCCN=C(N)N)C(=O)N[C@@H](CCCCN)C(=O)N[C@@H](CCCCN)C(=O)N[C@@H](CC(C)C)C(=O)N[C@@H](CCC(N)=O)C(=O)N[C@@H](CC(=O)O)C(=O)N[C@H](C(=O)N[C@@H](Cc1cnc[nH]1)C(=O)N[C@@H](CC(N)=O)C(=O)N[C@@H](Cc1ccccc1)C(=O)O)C(C)C)C(C)C [hPTH (1-34)]
plasma concentrations of calcium ions [1]: elevation of calcium ions | plasma concentrations of phosphorus [1]: decrease of phosphorous | Amount delivered ([2]; S.C. 20 ug): 20 µg | % bio ([2]; S.C. 20 ug (reference)): 100% | AUC ([2]; pig, plasma, sc, S.C. 20 ug): 1.16 ± 0.761 ng·h/mL | Cmax ([2]; pig, plasma, sc, S.C. 20 ug, neck): 1.08 ng/mL | Cmax ([3]; 90 ug, TD 90 ug printed patch, removed after 1 h): 0.0772 ± 0.0358 ng/mL | Cmax ([3]; 90 ug, TD 90 ug printed patch, removed after 1.5 h): 0.179 ± 0.0658 ng/mL | Cmax ([3]; 90 ug, TD 90 ug printed patch, removed after 2 h): 0.137 ± 0.0431 ng/mL | Cmax ([3]; 90 ug, TD 90 ug printed patch, removed after 8 h): 0.128 ± 0.0524 ng/mL | AUC ([3]; 90 ug, TD 90 ug, 1 h): 0.232 ± 0.0418 ng·h/mL | AUC ([3]; 90 ug, TD 90 ug, 1.5 h): 0.296 ± 0.0716 ng·h/mL | AUC ([3]; 90 ug, TD 90 ug, 2 h): 0.272 ± 0.0545 ng·h/mL | AUC ([3]; 90 ug, TD 90 ug, 8 h): 0.331 ng·h/mL | AUC ([3]; sc, 20 ug, SC 20 ug): 0.237 ± 0.0273 ng·h/mL | Cmax ([3]; sc, 20 ug, SC 20 ug): 0.289 ± 0.0525 ng/mL | F rel ([3]; 90 ug, TD 90 ug, 1 h): 22.4 ± 6.97% | F rel ([3]; 90 ug, TD 90 ug, 1.5 h): 28.5 ± 9.36% | F rel ([3]; 90 ug, TD 90 ug, 2 h): 26.2 ± 8.42% | F rel ([3]; 90 ug, TD 90 ug, 8 h): 31.6 ± 9.03% | Amount delivered ([4]; S.C. 10 μg): 10 µg | AUC ([4]; male, Large white, pig, plasma, other: transdermal printed patch on ViaDerm-treated skin, 50 ug, printed patch 50 μg): 0.46 ng·h/mL | Cmax ([4]; male, Large white, pig, plasma, other: transdermal printed patch on ViaDerm-treated skin, 50 ug, printed patch 50 μg (water), ViaDerm, back, read-out: Cmax): ~0.15 ng/mL | AUC ([4]; male, Large white, pig, plasma, other: transdermal printed patch on ViaDerm-treated skin, 100 ug, patch 100 μg): 0.919 ng·h/mL | Cmax ([4]; male, Large white, pig, plasma, other: transdermal printed patch on ViaDerm-treated skin, 100 ug, printed patch 100 μg (water), ViaDerm, back, read-out: Cmax): 0.32 ng/mL | AUC ([4]; male, Large white, pig, plasma, other: transdermal printed patch on ViaDerm-treated skin, 200 ug, patch 200 μg): 1.6 ng·h/mL | Cmax ([4]; male, Large white, pig, plasma, other: transdermal printed patch on ViaDerm-treated skin, 200 ug, printed patch 200 μg (water), ViaDerm, back, read-out: Cmax): ~0.32 ng/mL | AUC ([4]; male, Large white, pig, plasma, sc, 10 ug, S.C. 10 μg): 0.365 ng·h/mL | bioavailability ([4]; male, Large white, pig, plasma, sc, 10 ug, S.C. 10 μg (reference)): 100% | Cmax ([4]; male, Large white, pig, plasma, sc, 10 ug, S.C. 10 μg, neck, read-out: Cmax): 0.374 ng/mL | bioavailability ([4]; male, Large white, pig, plasma, sc, 50 ug, printed patch 50 μg): 25.2% | bioavailability ([4]; male, Large white, pig, plasma, sc, 100 ug, patch 100 μg): 25.2% | bioavailability ([4]; male, Large white, pig, plasma, sc, 200 ug, patch 200 μg): 21.9% | Amount delivered ([4]; patch 100 μg): 225.18 µg | Amount delivered ([4]; patch 200 μg): 43.84 µg | Amount delivered ([4]; printed patch 50 μg): 12.6 µg | Cmax ([4]; printed patch 50 μg (water), ViaDerm, back): 0.136 ng/mL | Cmax ([4]; printed patch 200 μg (water), ViaDerm, back): 0.317 ng/mL
